Assays:
Chinese sprangletop = assay: Test Example 3: herbicidal effect by foliage application, Wagner pot (Table 18, symbol D); type: in vivo, chinese sprangletop (Leptochloa chinensis); details: for Herbicidal effect on D (Chinese sprangletop), foliage application: amount of applied herbicide 320 g/ha; for herbicidal effect on Chinese sprangletop (D): 320 g/ha
How it was run: (§1)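 Plants were sown in alluvial soil held under 0.1–0.5 cm standing water and grown 14 days in a greenhouse at 25–30 °C. An emulsifiable formulation, water-diluted to the set dose, was then sprayed onto the foliage, and effects were scored three weeks later using previously defined criteria.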

oval-leafed pondweed = assay: Test Example 1: herbicidal activity, application before weed generation under submerged conditions (Table 16, symbol C); type: in vivo, oval-leafed pondweed (Monochoria vaginalis); details: amount of applied herbicide 320 g/ha
How it was run: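 Alluvial soil was flooded to 4 cm depth, weed seeds were sown mixed and 2.5-leaf rice seedlings were transplanted. On sowing day, the compound's emulsion, diluted in water to a set dose, was applied to the water surface. Plants grew at 25–30 °C and were scored 0–5 after three weeks.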

persian speedwell = assay: Test Example 5: herbicidal effect by foliage application, plastic box (Table 20, symbol R); type: in vivo, Persian speedwell (Veronica persica); details: for herbicidal effect on persian speedwell (R) / R: persian speedwell, herbicidal effect grade: foliage application, three weeks after application
How it was run: (§2)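 Plants sown in sterilized diluvial soil and grown 14 days in a greenhouse at 25° C to 30° C, then sprayed on the foliage with the compound's emulsion diluted in water to a predetermined herbicide amount. Injury to weeds and crops scored three weeks after application on a visual rating scale.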

southern crabgrass = assay: Test Example 4: herbicidal effect by soil treatment (Table 19, symbol F); type: in vivo, southern crabgrass (Digitaria ciliaris); details: amount of applied herbicide 320 g/ha
How it was run: (§3)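 Three weeks of greenhouse growth at 25° C. to 30° C. followed a uniform surface spray of water-diluted emulsion at a predetermined herbicide amount. Seeds had been sown beforehand under about 1.5 cm of sterilized diluvial soil. Grading followed criteria set out in an earlier test.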

false cleavers = assay: Test Example 4: herbicidal effect by soil treatment (Table 19, symbol Q); type: in vivo, false cleavers (Galium spurium); details: amount of applied herbicide 320 g/ha
How it was run: as §3

lambsquarters = assay: Test Example 5: herbicidal effect by foliage application, plastic box (Table 20, symbol O); type: in vivo, lambsquarters (Chenopodium album); details: for herbicidal effect on lambsquarters (O) / O: lambsquarters, herbicidal effect grade: foliage application, three weeks after application
How it was run: as §2

barnyard grass [1] = assay: Test Example 4: herbicidal effect by soil treatment (Table 19, symbol H); type: in vivo, barnyard grass (Echinochloa crus-galli); details: amount of applied herbicide 320 g/ha
How it was run: as §3

late watergrass = assay: Test Example 2: herbicidal activity, application during weed generation under submerged conditions (Table 17, symbol A); type: in vivo, late watergrass (Echinochloa oryzicola); details: AAH 320 g/ha; application during weed generation, submerged conditions
How it was run: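 Herbicide emulsion, diluted with water to the chosen amount, is applied onto 4 cm floodwater over alluvial soil where the weeds were co-sown and raised at 25–30° C. Application timing: 1–2 leaves. Assessment: three weeks afterwards.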

chickweed = assay: Test Example 4: herbicidal effect by soil treatment (Table 19, symbol P); type: in vivo, common chickweed (Stellaria media); details: amount of applied herbicide 320 g/ha
How it was run: as §3

rice flat sedge = assay: Test Example 3: herbicidal effect by foliage application, Wagner pot (Table 18, symbol E); type: in vivo, rice flat sedge (Cyperus iria); details: for Herbicidal effect on E (rice flat sedge), foliage application: amount of applied herbicide 320 g/ha; for herbicidal effect on rice flat sedge (E): 320 g/ha
How it was run: as §1

barnyard grass [2] = assay: Test Example 3: herbicidal effect by foliage application, Wagner pot (Table 18, symbol H); type: in vivo, barnyard grass (Echinochloa crus-galli); details: for Herbicidal effect on H (barnyard grass), foliage application: amount of applied herbicide 320 g/ha; for herbicidal effect on barnyard grass (H): 320 g/ha
How it was run: as §1

redroot pigweed = assay: Test Example 5: herbicidal effect by foliage application, plastic box (Table 20, symbol N); type: in vivo, redroot pigweed (Amaranthus retroflexus); details: for N: redroot pigweed, herbicidal effect grade: foliage application, three weeks after application
How it was run: as §2

windgrass = assay: Test Example 4: herbicidal effect by soil treatment (Table 19, symbol L); type: in vivo, windgrass (Apera spica-venti); details: amount of applied herbicide 320 g/ha
How it was run: as §3

[3] = 320 g/ha, foliage application after 14-day growth, evaluated three weeks after application
[4] = amount of applied herbicide 320 g/ha, foliage application after 14-day growth, evaluated three weeks after application

Compound	Herbicidal effect, C: oval-leafed pondweed (oval-leafed pondweed)	F: southern crabgrass, herbicidal effect grade (southern crabgrass)	H: barnyard grass, herbicidal effect grade (barnyard grass [1])	herbicidal effect rating, A: late watergrass (late watergrass)	P: chickweed, herbicidal effect grade (chickweed)	herbicidal effect on Chinese sprangletop (D) (Chinese sprangletop)	herbicidal effect on rice flat sedge (E) (rice flat sedge)	herbicidal effect on barnyard grass (H) (barnyard grass [2])	L: windgrass, herbicidal effect grade (windgrass)	R: persian speedwell, herbicidal effect grade (persian speedwell; 320 g/ha)	O: lambsquarters, herbicidal effect grade (lambsquarters; 320 g/ha)	N: redroot pigweed, herbicidal effect grade (redroot pigweed; 320 g/ha)	other results
Cc1nn(C)c(=O)c(-c2c(-c3ccc(OC(C)C)cc3)oc3ccc(F)cc23)c1O [9-025]	5 (Herbicidal rate of 90% or more (almost completely withered))	4 (Herbicidal rate of 70% or more and less than 90%)	4 (Herbicidal rate of 70% or more and less than 90%)	4 (Herbicidal rate of 70% or more and less than 90%)	0 (Herbicidal rate of 5% or less (almost no effect))	–	–	–	–	–	–	–	Herbicidal effect on D (Chinese sprangletop), foliage application (Chinese sprangletop): 2 (Herbicidal rate of 20% or more and less than 40%); herbicidal effect on persian speedwell (R) (persian speedwell; 320 g/ha): 5 (Herbicidal rate of 90% or more (almost completely withered)); Q: false cleavers, herbicidal effect grade (false cleavers): 0 (Herbicidal rate of 5% or less (almost no effect)); herbicidal effect on lambsquarters (O) (lambsquarters; 320 g/ha): 4 (Herbicidal rate of 70% or more and less than 90%); Herbicidal effect on E (rice flat sedge), foliage application (rice flat sedge): 5 (Herbicidal rate of 90% or more (almost completely withered)); Herbicidal effect on H (barnyard grass), foliage application (barnyard grass [2]): 5 (Herbicidal rate of 90% or more (almost completely withered))
Cc1nn(C)c(=O)c(-c2c(-c3ccc(Cl)c(F)c3)sc3c(F)cccc23)c1O [4-054]	0 (Herbicidal rate of 5% or less (almost no effect))	–	–	2 (Herbicidal rate of 20% or more and less than 40%)	–	0 (Herbicidal rate of 5% or less (almost no effect))	0 (Herbicidal rate of 5% or less (almost no effect))	2 (Herbicidal rate of 20% or more and less than 40%)	–	–	–	–	herbicidal effect on R: persian speedwell (evaluation grade 0-5) (persian speedwell; [3]): 5 (Herbicidal rate of 90% or more (almost completely withered)); Herbicidal effect by soil treatment, F: southern crabgrass (southern crabgrass): 0 (Herbicidal rate of 5% or less (almost no effect)); Herbicidal effect by soil treatment, Q: false cleavers (false cleavers): 0 (Herbicidal rate of 5% or less (almost no effect)); herbicidal effect on O: lambsquarters (evaluation grade 0-5) (lambsquarters; [3]): 3 (Herbicidal rate of 40% or more and less than 70%); Herbicidal effect by soil treatment, H: barnyard grass (barnyard grass [1]): 0 (Herbicidal rate of 5% or less (almost no effect)); herbicidal effect on N: redroot pigweed (evaluation grade 0-5) (redroot pigweed; [3]): 5 (Herbicidal rate of 90% or more (almost completely withered)); Herbicidal effect by soil treatment, P: chickweed (chickweed): 4 (Herbicidal rate of 70% or more and less than 90%); Herbicidal effect by soil treatment, L: windgrass (windgrass): 0 (Herbicidal rate of 5% or less (almost no effect))
Cc1nn(C)c(=O)c(-c2c(-c3ccc(OCC(C)C)cc3)oc3ccc(F)cc23)c1O [9-027]	5 (Herbicidal rate of 90% or more (almost completely withered))	5 (Herbicidal rate of 90% or more (almost completely withered))	4 (Herbicidal rate of 70% or more and less than 90%)	4 (Herbicidal rate of 70% or more and less than 90%)	1 (Herbicidal rate of 5% or more and less than 20%)	–	–	–	4 (Herbicidal rate of 70% or more and less than 90%)	–	–	–	Herbicidal effect on D (Chinese sprangletop), foliage application (Chinese sprangletop): 2 (Herbicidal rate of 20% or more and less than 40%); herbicidal effect on persian speedwell (R) (persian speedwell; 320 g/ha): 5 (Herbicidal rate of 90% or more (almost completely withered)); Q: false cleavers, herbicidal effect grade (false cleavers): 0 (Herbicidal rate of 5% or less (almost no effect)); herbicidal effect on lambsquarters (O) (lambsquarters; 320 g/ha): 5 (Herbicidal rate of 90% or more (almost completely withered)); Herbicidal effect on E (rice flat sedge), foliage application (rice flat sedge): 5 (Herbicidal rate of 90% or more (almost completely withered)); Herbicidal effect on H (barnyard grass), foliage application (barnyard grass [2]): 5 (Herbicidal rate of 90% or more (almost completely withered))
Cc1nn(C)c(=O)c(-c2c(-c3ccc(Cl)cc3)sc3c(C)cccc23)c1O [4-102]	0 (Herbicidal rate of 5% or less (almost no effect))	–	–	2 (Herbicidal rate of 20% or more and less than 40%)	–	3 (Herbicidal rate of 40% or more and less than 70%)	5 (Herbicidal rate of 90% or more (almost completely withered))	1 (Herbicidal rate of 5% or more and less than 20%)	–	–	–	–	Herbicidal effect by foliage application, R: persian speedwell (persian speedwell; [4]): 5 (Herbicidal rate of 90% or more (almost completely withered)); Herbicidal effect by soil treatment, F: southern crabgrass (southern crabgrass): 0 (Herbicidal rate of 5% or less (almost no effect)); Herbicidal effect by soil treatment, Q: false cleavers (false cleavers): 0 (Herbicidal rate of 5% or less (almost no effect)); Herbicidal effect by foliage application, O: lambsquarters (lambsquarters; [4]): 4 (Herbicidal rate of 70% or more and less than 90%); Herbicidal effect by soil treatment, H: barnyard grass (barnyard grass [1]): 0 (Herbicidal rate of 5% or less (almost no effect)); Herbicidal effect by foliage application, N: redroot pigweed (redroot pigweed; [4]): 5 (Herbicidal rate of 90% or more (almost completely withered)); Herbicidal effect by soil treatment, P: chickweed (chickweed): 0 (Herbicidal rate of 5% or less (almost no effect)); Herbicidal effect by soil treatment, L: windgrass (windgrass): 0 (Herbicidal rate of 5% or less (almost no effect))
COc1ccccc1-c1sc2cc(OCC(C)C)ccc2c1-c1c(O)c(C)nn(C)c1=O [3-107]	5 (Herbicidal rate of 90% or more (almost completely withered))	3 (Herbicidal rate of 40% or more and less than 70%)	3 (Herbicidal rate of 40% or more and less than 70%)	3 (Herbicidal rate of 40% or more and less than 70%)	1 (Herbicidal rate of 5% or more and less than 20%)	3 (Herbicidal rate of 40% or more and less than 70%)	4 (Herbicidal rate of 70% or more and less than 90%)	4 (Herbicidal rate of 70% or more and less than 90%)	0 (Herbicidal rate of 5% or less (almost no effect))	5 (Herbicidal rate of 90% or more (almost completely withered))	5 (Herbicidal rate of 90% or more (almost completely withered))	5 (Herbicidal rate of 90% or more (almost completely withered))	–
CCCC(=O)Oc1c(C)nn(C)c(=O)c1-c1c(-c2ccc(F)cc2OCC)sc2cc(Cl)ccc12 [3-046]	0 (Herbicidal rate of 5% or less (almost no effect))	0 (Herbicidal rate of 5% or less (almost no effect))	0 (Herbicidal rate of 5% or less (almost no effect))	0 (Herbicidal rate of 5% or less (almost no effect))	4 (Herbicidal rate of 70% or more and less than 90%)	2 (Herbicidal rate of 20% or more and less than 40%)	5 (Herbicidal rate of 90% or more (almost completely withered))	5 (Herbicidal rate of 90% or more (almost completely withered))	5 (Herbicidal rate of 90% or more (almost completely withered))	3 (Herbicidal rate of 40% or more and less than 70%)	3 (Herbicidal rate of 40% or more and less than 70%)	4 (Herbicidal rate of 70% or more and less than 90%)	–
COc1ccccc1-c1sc2cc(OCc3ccccc3)ccc2c1-c1c(O)c(C)nn(C)c1=O [3-118]	5 (Herbicidal rate of 90% or more (almost completely withered))	0 (Herbicidal rate of 5% or less (almost no effect))	0 (Herbicidal rate of 5% or less (almost no effect))	1 (Herbicidal rate of 5% or more and less than 20%)	0 (Herbicidal rate of 5% or less (almost no effect))	0 (Herbicidal rate of 5% or less (almost no effect))	5 (Herbicidal rate of 90% or more (almost completely withered))	4 (Herbicidal rate of 70% or more and less than 90%)	3 (Herbicidal rate of 40% or more and less than 70%)	5 (Herbicidal rate of 90% or more (almost completely withered))	5 (Herbicidal rate of 90% or more (almost completely withered))	5 (Herbicidal rate of 90% or more (almost completely withered))	–
